In US11478478B2, “2,3-disubstituted 1-acyl-4-amino-1,2,3,4-tetrahydroquinoline derivatives and their use as bromodomain inhibitors” (GLAXOSMITHKLINE INTELLECTUAL PROPERTY (NO.2) LIMITED, priority 2013, dated 2022):
Structures can show the parent of a compound that is named as a salt.

target: T1, BRD4 BD2 (Homo sapiens, UniProt O60885, Y97A); assay: TR-FRET binding assay, BRD4 BD2 (BD1-mutated protein); conditions: read-out: pIC50 in the BRD4 BD2 assay (converted)
T1 construct: BRD4 (1-477) (Y97A) and (Y390A); made in house; host or cells: E. coli (pET15b vector)
How it was run: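 Displacement of Alexa Fluor647-labelled bromodomain ligand (at Kd) from 10 nM His-tagged BRD4 (1-477, Y97A) read by Eu-anti-His TR-FRET (665/615 ratio) in pH 7.4 HEPES buffer, 0.5% DMSO. Compound preincubated 30 min at rt, detection ≥30 min. pIC50 derived from four-parameter fit after normalisation to controls.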

IC50 [nM]	Structure (SMILES)
1000 to 100000	CC(=O)N1c2ccc(N3CCN[C@@H](C)C3)cc2[C@H](Nc2cnc(C)cn2)[C@@H](C)[C@@H]1C1CC1 (racemic) [Example 227, 1-((rac-2S,3R,4R)-2-cyclopropyl-3-methyl-6-((S)-3-methylpiperazin-1-yl)-4-((5-methylpyrazin-2-yl)amino)-3,4-dihydroquinolin-1(2H)-yl)ethanone]
1000 to 100000	CC[C@H]1[C@H](C)[C@@H](Nc2ccc(C#N)cc2)c2cc(F)ccc2N1C(C)=O (single isomer, unassigned) [Example 147a]
100	CNC(=O)c1ccc2c(c1)[C@H](Nc1cccc(C)n1)[C@@H](C)[C@H](C1CC1)N2C(C)=O (single isomer, unassigned) [Example 239a]
1000 to 100000	CC(=O)N1c2ccc(C(=O)O)cc2[C@H](Nc2ccc(S(C)(=O)=O)cc2)[C@@H](C)[C@@H]1C1CC1 [Example 332, (2S,3R,4)-1-acetyl-2-cyclopropyl-3-methyl-4-((4-(methylsulfonyl)phenyl)amino)-1,2,3,4-tetrahydroquinoline-6-carboxylic acid]
1000 to 100000	CC(=O)N1c2ccccc2[C@H](Nc2ccnc(C)c2)[C@@H](C)[C@@H]1C (racemic) [Example 23, rac-1-((2S,3R,4R)-2,3-dimethyl-4-((2-methylpyridin-4-yl)amino)-3,4-dihydroquinolin-1(2H)-yl)ethanone]
100	CC(=O)N1c2ccc(C3=CCOCC3)cc2[C@H](Nc2ncccn2)[C@@H](C)[C@@H]1C1CC1 (racemic) [Example 177, rac-1-((2S,3R,4R)-2-cyclopropyl-6-(3,6-dihydro-2H-pyran-4-yl)-3-methyl-4-(pyrimidin-2-ylamino)-3,4-dihydroquinolin-1(2H)-yl)ethanone, formic acid salt]
1000 to 100000	CC(=O)N1c2ccc(N3CCC(N)CC3)nc2[C@H](Nc2ccccc2)[C@@H](C)[C@@H]1C1CC1 (racemic) [Example 109, rac-1-((2S,3R,4R)-6-(4-aminopiperidin-1-yl)-2-cyclopropyl-3-methyl-4-(phenylamino)-3,4-dihydro-1,5-naphthyridin-1(2H)-yl)ethanone]
1000 to 100000	COc1cc2c(cc1C(N)=O)[C@H](Nc1nccc(C)n1)[C@@H](C)[C@H](C1CC1)N2C(C)=O (racemic) [Example 593, rac-(2S,3R,4R)-1-acetyl-2-cyclopropyl-7-methoxy-3-methyl-4-((4-methylpyrimidin-2-yl)amino)-1,2,3,4-tetrahydroquinoline-6-carboxamide]
100	CC(=O)N1c2ccc(F)cc2[C@H](Nc2cccnc2O)[C@@H](C)[C@@H]1C [Example 518, 1-((2S,3R,4R)-6-fluoro-4-((2-hydroxypyridin-3-yl)amino)-2,3-dimethyl-3,4-dihydroquinolin-1(2H)-yl)ethanone]
100	CC(=O)N1c2ccc(C(=O)NCCO)cc2[C@H](Nc2ncc(F)c(C)n2)[C@@H](C)[C@@H]1C [Example 430, (2S,3R,4R)-1-acetyl-4-((5-fluoro-4-methylpyrimidin-2-yl)amino)-N-(2-hydroxyethyl)-2,3-dimethyl-1,2,3,4-tetrahydroquinoline-6-carboxamide]
100	CC(=O)N1c2ccc(F)cc2[C@H](Nc2ncccn2)[C@@H](C)[C@@H]1C [Example 501, 1-((2S,3R,4R)-6-fluoro-2,3-dimethyl-4-(pyrimidin-2-ylamino)-3,4-dihydroquinolin-1(2H)-yl)ethanone]
100	CC(=O)N1c2ccc(F)cc2[C@H](Nc2ccc(C#N)cc2)[C@@H](C)[C@@H]1C1CC1 (racemic) [Example 161, rac-4-(((2S,3R,4R)-1-acetyl-2-cyclopropyl-6-fluoro-3-methyl-1,2,3,4-tetrahydroquinolin-4-yl)amino)benzonitrile]
1000 to 100000	CC(=O)N1c2ccccc2[C@H](Nc2ccccc2)[C@@H](CO)[C@@H]1C1CC1 (racemic) [Example 592, rac-1-((2S,3R,4R)-2-cyclopropyl-3-(hydroxymethyl)-4-(phenylamino)-3,4-dihydroquinolin-1(2H)-yl)ethanone]
100	CC(=O)N1c2ccc(F)cc2[C@H](Nc2ccc(C#N)cc2)[C@@H](C)[C@@H]1C (racemic) [Example 139, rac-4-(((2S,3R,4R)-1-acetyl-6-fluoro-2,3-dimethyl-1,2,3,4-tetrahydroquinolin-4-yl)amino)benzonitrile]
100	CC[C@H]1[C@H](C)[C@@H](Nc2cccc(C)n2)c2ccccc2N1C(C)=O (single isomer, unassigned) [Example 25a]
100	CC(=O)N1c2ccc(C3=CCNCC3)cc2[C@H](Nc2cccc(C)n2)[C@@H](C)[C@@H]1C1CC1 (racemic) [Example 87, rac-1-((2S,3R,4R)-2-cyclopropyl-3-methyl-4-((6-methylpyridin-2-yl)amino)-6-(1,2,3,6-tetrahydropyridin-4-yl)-3,4-dihydroquinolin-1(2H)-yl)ethanone]

IC50 [nM]	Structure (SMILES)
100	COCCNC(=O)c1ccc2c(c1)[C@H](Nc1ncccn1)[C@@H](C)[C@H](C1CC1)N2C(C)=O [Example 489, (2S,3R,4R)-1-acetyl-2-cyclopropyl-N-(2-methoxyethyl)-3-methyl-4-(pyrimidin-2-ylamino)-1,2,3,4-tetrahydroquinoline-6-carboxamide]
1000 to 100000	CC(=O)N1c2ccccc2[C@H](Nc2cncc(C)n2)[C@@H](C)[C@@H]1C1CC1 (racemic) [Example 48, rac-1-((2S,3R,4R)-2-cyclopropyl-3-methyl-4-((6-methylpyrazin-2-yl)amino)-3,4-dihydroquinolin-1(2H)-yl)ethanone]
100	CC(=O)N1c2ccc(F)cc2[C@H](Nc2ccc(C#N)cn2)[C@@H](C)[C@@H]1C (racemic) [Example 143, rac-6-(((2S,3R,4R)-1-acetyl-6-fluoro-2,3-dimethyl-1,2,3,4-tetrahydroquinolin-4-yl)amino)nicotinonitrile]
100	CC(=O)N1c2ccccc2[C@H](Nc2ccccc2)[C@@H](C)[C@@H]1C1CC1 (single isomer, unassigned) [Example 27a]
1000 to 100000	CC(=O)N1c2ccc(S(C)(=O)=O)cc2[C@H](Nc2cccc(C)n2)[C@@H](C)[C@@H]1C1CC1 (racemic) [Example 67, rac-1-((2S,3R,4R)-2-cyclopropyl-3-methyl-4-((6-methylpyridin-2-yl)amino)-6-(methylsulfonyl)-3,4-dihydroquinolin-1(2H)-yl)ethanone]
1000 to 100000	CNC(=O)c1ccc2c(c1)[C@@H](Nc1cccc(C)n1)[C@H](C)[C@@H](C1CC1)N2C(C)=O (single isomer, unassigned) [Example 239b]
1000 to 100000	CC(=O)N1c2ccc(C(N)=O)cc2[C@H](Nc2nccc(N(C)C)n2)[C@@H](C)[C@@H]1C1CC1 [Example 387, (2S,3R,4R)-1-acetyl-2-cyclopropyl-4-((4-(dimethylamino)pyrimidin-2-yl)amino)-3-methyl-1,2,3,4-tetrahydroquinoline-6-carboxamide]
1000 to 100000	CC(=O)N1c2ccc(S(=O)(=O)C(C)C)cc2[C@H](Nc2cccc(C)n2)[C@@H](C)[C@@H]1C1CC1 (racemic) [Example 68, rac-1-((2S,3R,4R)-2-cyclopropyl-6-(isopropylsulfonyl)-3-methyl-4-((6-methylpyridin-2-yl)amino)-3,4-dihydroquinolin-1(2H)-yl)ethanone]
100	CC(=O)N1c2ccc(N3CCOC(C)C3)cc2[C@H](Nc2ccccc2)[C@@H](C)[C@@H]1C (mixture of isomers) [Example 77, 1-((rac-2S,3R,4R)-2,3-dimethyl-6-(2-methylmorpholino)-4-(phenylamino)-3,4-dihydroquinolin-1(2H)-yl)ethanone]
100	COCCn1cc(-c2ccc3c(c2)[C@H](Nc2nccc(C)n2)[C@@H](C)[C@H](C2CC2)N3C(C)=O)cn1 [Example 557, 1-((2S,3R,4R)-2-cyclopropyl-6-(1-(2-methoxyethyl)-1H-pyrazol-4-yl)-3-methyl-4-((4-methylpyrimidin-2-yl)amino)-3,4-dihydroquinolin-1(2H)-yl)ethanone]
1000 to 100000	CC(=O)N1c2ccc(F)cc2[C@H](Nc2cccnc2C#N)[C@@H](C)[C@@H]1C1CC1 [Example 503, 3-(((2S,3R,4R)-1-acetyl-2-cyclopropyl-6-fluoro-3-methyl-1,2,3,4-tetrahydroquinolin-4-yl)amino)picolinonitrile]
1000 to 100000	CC(=O)N1c2ccccc2[C@H](Nc2cccc(C#N)n2)[C@@H](C)[C@@H]1C1CC1 (racemic) [Example 50, rac-6-(((2S,3R,4R)-1-acetyl-2-cyclopropyl-3-methyl-1,2,3,4-tetrahydroquinolin-4-yl)amino)picolinonitrile]
100	CC(=O)N1c2ccccc2[C@H](Oc2ccccc2)[C@@H](C)[C@@H]1C1CC1 (racemic) [Example 119, rac-1-((2S,3S,4R)-2-cyclopropyl-3-methyl-4-phenoxy-3,4-dihydroquinolin-1(2H)-yl)ethanone]
100	COCCn1cc(-c2ccc3c(c2)[C@H](Nc2cnc(C)cn2)[C@@H](C)[C@H](C2CC2)N3C(C)=O)cn1 (single isomer, unassigned) [Example 138a]
100	CC(=O)N1c2ccc(C(=O)NC(CO)CO)cc2[C@H](Nc2ccc(C#N)cc2)[C@@H](C)[C@@H]1C1CC1 [Example 493, (2S,3R,4R)-1-acetyl-4-((4-cyanophenyl)amino)-2-cyclopropyl-N-(1,3-dihydroxypropan-2-yl)-3-methyl-1,2,3,4-tetrahydroquinoline-6-carboxamide]
100	CC(=O)N1c2ccc(C(=O)NC3CCOCC3)cc2[C@H](Nc2ncccn2)[C@@H](C)[C@@H]1C1CC1 [Example 484, (2S,3R,4R)-1-acetyl-2-cyclopropyl-3-methyl-4-(pyrimidin-2-ylamino)-N-(tetrahydro-2H-pyran-4-yl)-1,2,3,4-tetrahydroquinoline-6-carboxamide]
